Test results as given in patent US5053006A, “Method for the permanent occlusion of arteries” (priority 1990, dated 1991).
Like-named read-outs stand apart in the source and are kept apart here.

Assays:
[1] = tested on: corneal neovasculature; type: in vivo, New Zealand albino rabbit
Description: The corneal and limbal epithelia, along with the conjunctival epithelium 2-3 mm beyond the limbus, were removed from New Zealand albino rabbits by a combination of surgical scraping and n-heptanol debridement. The denuded corneal surfaces were then healed by the remaining conjunctival epithelium, of which 65% contained extensive neovascularization. From this group, 16 corneas with neovascularization persistent for about 20 months were subjected to photothrombotic treatment.
Isotonic saline solution was used as a control solution.
After anesthesia with intramuscular injection of xylazine (10 mg/kg bw) and ketamine (10 mg/kg bw), the rabbits were injected intravenously with either 2.5 ml of isotonic saline solution or rose bengal saline solution at a dosage of 40 mg/kg bw. Irradiation of corneal vessels was carried out with an argon ion laser (Model 95, Cooper LaserSonics, Fremont, Calif.) operated at 514.5 nm, as described by Mendelsohn et al. (Arch. Opthalmol., 105:983-988, 1987). The beam focusing apparatus was mounted in an X-Y positioning device attached to a rotary turntable, both with micrometer precision (Daedal, Inc., Harrison City, Pa.). With this apparatus, beam positioning stability and reproducibility of incident intensity were improved because irradiations were administered during the open cycle of the mechanical shutter. The incident power level was set at 200 mW; allowing for reflection losses in the fiber optic focusing system, the incident power was reduced to 130 mW. At the focal point, the laser beam was 63 μm in diameter. Each irradiation was 0.2 second in pulse duration. During the entire procedure, the corneas were continuously rinsed with a balanced salt solution delivered through a peristatic pump and the temperature of the solution was maintained at 37° C. with a water bath. After laser irradiation, topical antibiotics and steroids were applied for two days.
Routine external photography and corneal fluorescein angiography were performed to document occlusion of the corneal blood vessels and the duration of their occlusion. Angiograms were taken with a ceiling-mounted Zeiss surgical photoscope after injection of 1 ml of 10 mg/ml fluorescein solution. Baseline angiography was performed two or three days before laser irradiation to avoid possible photosensitizing effects from the fluorescein dye used for angiography. After photothrombotic treatment, angiograms were taken on scheduled dates in order to monitor the duration of the occlusive effect. Late phase (5 minutes after injection) fluorescein angiograms were used for comparison.
Various dosages of rose bengal solution were used to investigate the efficacy of photothrombosis.

[2] = tested on: fibrinogen; test: Immunofluorescence study of thrombus composition, fibrinogen; set-up: species or system rat
Experimental: Following incubation with primary antibody for one hour, FITC-conjugated goat anti-mouse IgG and goat anti-mouse IgG antibodies (Sigma Chemical Co., St. Louis, Mo.) were used as secondary antibodies for anti-fibrinogen and anti-Factor VIII, respectively. The sections were observed by epi-illumination with a Nikon Microphot-FX microscope.

[3] = tested on: middle cerebral artery; test: Argon laser photothrombotic occlusion of middle cerebral artery (Example 1); type: in vivo, rat (male Wistar)
Description: Male Wistar rats, each weighing 280 to 330 gm, were anesthetized with 1.5% halothane and maintained on a 70:30 mixture of nitrous oxide and oxygen delivered by a closely fitting Mylar face mask (Watson et al., J. Neurosurg., 66:748-754, 1987, the disclosure of which is hereby incorporated by reference and relied upon). After separation of the temporal musculature, the middle cerebral artery was exposed via a small subtemporal craniectomy produced by a high-speed drill under an operating microscope; the dura was left intact. The common carotid arteries were exposed bilaterally by a midline incision extending from the mental process to the sternal notch; the sternocleidomastoid muscle was then retracted laterally to expose the underlying artery. Bleeding from the operative site was controlled with pressure and Gelfoam. The animal was then prepared for irradiation by filling the surgical cavity with saline, just submerging the exposed blood vessel. The saline solution was kept clear by frequent suction and irrigation. The femoral arteries were exposed by bilateral inguinal incisions and were prepared for irradiation in a fashion similar to that described above.
Thrombus development and subsequent occlusion of the middle cerebral artery were easily observed during irradiation owing to wall transparency. The irradiated segment emitted a bright orange fluorescence (as viewed through an interference filter which rejected the 514.5 nm argon line); this was attributed to rose bengal uptake by red blood cell membranes and binding to plasma proteins such as albumin. As the irradiation proceeded, the fluorescence became yellowish and less intense owing to the accumulation of platelets and exclusion of red blood cells from the developing thrombus. Complete occlusion was signaled by exclusion of red blood cells from the arterial segments both distal and proximal to the irradiated portion, leaving a single colorless segment 7 to 10 arterial diameters in length.
Ultrastructural studies were carried out at either 30 minutes or 7 days following irradiation. Animals were perfused transcardially with 0.9% sodium chloride solution followed by 2% paraformaldehyde and 2.5% glutaraldehyde in a 0.1 M sodium phosphate buffer. Perfusion pressure was monitored throughout the procedure and was maintained at 100 mm Hg. After perfusion fixation, the femoral and common carotid arteries were isolated and placed in fixative for an additional 2 hours. To isolate the middle cerebral artery, the brain was first removed from the cranial vault and placed in fixative for a 2-hour period. Next, the whole brain was placed in phosphate-buffered 1% osmium tetroxide for 2 minutes.
The blood vessels were then postfixed in Millonig's phosphate-buffered 1% osmium tetroxide for 1 hour. Specimens chosen for transmission electron microscopy were dehydrated in ethanol and propylene oxide and embedded in Poly-Bed 812 as previously described (Dietrich et al., J Neuropathol. Exp. Neurol., 43:72-83, 1984). Sections 1 μm thick were cut with glass knives on a Sorvall ultra-microtome and stained with toluidine blue. To characterize the occlusive material more completely, ultra-thin sections stained with uranyl acetate and lead citrate were examined with a Zeiss EM-10C electron microscope. The blood vessels chosen for scanning electron microscopy analysis were examined under a dissecting microscope and cut longitudinally with a scalpel blade to expose the luminal surface. The blood vessels were then dehydrated in graded ethanols and placed in Freon. The tissue was critical-point dried, coated with gold, and examined and photographed with a JEOL JSM-35C scanning electron microscope.

[4] = rabbit, in vivo; cited from earlier work

Structure (SMILES): O=C([O-])c1c(Cl)c(Cl)c(Cl)c(Cl)c1-c1c2cc(I)c(=O)c(I)c-2oc2c(I)c([O-])c(I)cc12.[Na+].[Na+] [rose bengal]
- Total Laser Shots to Occlude each Vessel ([1]; 4 mg/kg BW i.v., duration 0-10 min, means ± s.d.): 33 ± 8
- Total Laser Shots to Occlude each Vessel ([1]; 4 mg/kg BW i.v., duration 10-20 min, means ± s.d.): 53 ± 8
- Total Laser Shots to Occlude each Vessel ([1]; 4 mg/kg BW i.v., duration 20-30 min, means ± s.d.): 81 ± 11
- Total Laser Shots to Occlude each Vessel ([1]; 4 mg/kg BW i.v., duration 30-40 min): > 100
- Total Laser Shots to Occlude each Vessel ([1]; 4 mg/kg BW i.v., duration 40-50 min): N.O.
- Total Laser Shots to Occlude each Vessel ([1]; 4 mg/kg BW i.v., duration 50-60 min): N.O.
- shots required to occlude blood vessels ([1]; 4 mg/kg bw): more than 100 shots
- time window in which vessels could still be occluded ([1]; 4 mg/kg bw, sufficient shots): ≤ 30 min
- Total Laser Shots to Occlude each Vessel ([1]; 8 mg/kg BW i.v., duration 0-10 min, means ± s.d.): 13 ± 4
- Total Laser Shots to Occlude each Vessel ([1]; 8 mg/kg BW i.v., duration 10-20 min, means ± s.d.): 19 ± 1
- Total Laser Shots to Occlude each Vessel ([1]; 8 mg/kg BW i.v., duration 20-30 min, means ± s.d.): 30 ± 4
- Total Laser Shots to Occlude each Vessel ([1]; 8 mg/kg BW i.v., duration 30-40 min, means ± s.d.): 51 ± 7
- Total Laser Shots to Occlude each Vessel ([1]; 8 mg/kg BW i.v., duration 40-50 min, means ± s.d.): 65 ± 6
- Total Laser Shots to Occlude each Vessel ([1]; 8 mg/kg BW i.v., duration 50-60 min, means ± s.d.): 85 ± 10
- shots per target vessel required for occlusion ([1]; 8 mg/kg bw or higher): < 20 shots
- Total Laser Shots to Occlude each Vessel ([1]; 16 mg/kg BW i.v., duration 0-10 min, means ± s.d.): 8 ± 3
- Total Laser Shots to Occlude each Vessel ([1]; 16 mg/kg BW i.v., duration 10-20 min, means ± s.d.): 9 ± 2
- Total Laser Shots to Occlude each Vessel ([1]; 16 mg/kg BW i.v., duration 20-30 min, means ± s.d.): 10 ± 2
- Total Laser Shots to Occlude each Vessel ([1]; 16 mg/kg BW i.v., duration 30-40 min, means ± s.d.): 13 ± 3
- Total Laser Shots to Occlude each Vessel ([1]; 16 mg/kg BW i.v., duration 40-50 min, means ± s.d.): 20 ± 4
- Total Laser Shots to Occlude each Vessel ([1]; 16 mg/kg BW i.v., duration 50-60 min, means ± s.d.): 32 ± 5
- Total Laser Shots to Occlude each Vessel ([1]; 40 mg/kg BW i.v., duration 0-10 min, means ± s.d.): 5 ± 1
- Total Laser Shots to Occlude each Vessel ([1]; 40 mg/kg BW i.v., duration 10-20 min, means ± s.d.): 5 ± 1
- Total Laser Shots to Occlude each Vessel ([1]; 40 mg/kg BW i.v., duration 20-30 min, means ± s.d.): 6 ± 1
- Total Laser Shots to Occlude each Vessel ([1]; 40 mg/kg BW i.v., duration 30-40 min, means ± s.d.): 8 ± 2
- Total Laser Shots to Occlude each Vessel ([1]; 40 mg/kg BW i.v., duration 40-50 min, means ± s.d.): 10 ± 3
- Total Laser Shots to Occlude each Vessel ([1]; 40 mg/kg BW i.v., duration 50-60 min, means ± s.d.): 15 ± 4
- corneal fluorescein angiography ([1]; after photothrombosis): completely occluded without any dye leakage
- recanalization / new vessel formation ([1]; four-month study period): without recanalization or stimulation of new vessel formation elsewhere
- involution of occluded corneal vessels ([1]; one week after irradiation): gradually involuted
- conjunctival side effect ([1]; rabbit, in vivo, 40 mg/kg): edematous and slightly pinkish in color
- fibrinogen in photoinduced MCA thrombi [2]: abundance
- pH of isotonic saline solution (15 mg/ml): 6.80
- highest concentration which could be achieved practically (normal saline): 100 mg/mL
- length of colorless occluded segment ([3]; complete occlusion): 7 to 10 arterial diameters
- recanalization on saline bolus ([3]; five minutes after completion of irradiation): no recanalization was observed
- energy fluence ([3]; rat, in vivo): ~3.5 kJ/sq cm
- total energy deposited ([3]; rat, in vivo): approximately 1 J
- thrombus composition ([3]; ultrastructural analysis): composed primarily of aggregated platelets
- irradiation time to effect complete occlusion ([3]; very low incident intensity): ≤ 3 min
- half-life in blood [4]: three
